Target: T1, ENaC (Homo sapiens, UniProt P37088+P51168+P51170)
T1 construct: endogenous in cells; host or cells: primary human bronchial epithelial (HBE) cells at air-liquid interface
T1 sequence (P37088 1-669): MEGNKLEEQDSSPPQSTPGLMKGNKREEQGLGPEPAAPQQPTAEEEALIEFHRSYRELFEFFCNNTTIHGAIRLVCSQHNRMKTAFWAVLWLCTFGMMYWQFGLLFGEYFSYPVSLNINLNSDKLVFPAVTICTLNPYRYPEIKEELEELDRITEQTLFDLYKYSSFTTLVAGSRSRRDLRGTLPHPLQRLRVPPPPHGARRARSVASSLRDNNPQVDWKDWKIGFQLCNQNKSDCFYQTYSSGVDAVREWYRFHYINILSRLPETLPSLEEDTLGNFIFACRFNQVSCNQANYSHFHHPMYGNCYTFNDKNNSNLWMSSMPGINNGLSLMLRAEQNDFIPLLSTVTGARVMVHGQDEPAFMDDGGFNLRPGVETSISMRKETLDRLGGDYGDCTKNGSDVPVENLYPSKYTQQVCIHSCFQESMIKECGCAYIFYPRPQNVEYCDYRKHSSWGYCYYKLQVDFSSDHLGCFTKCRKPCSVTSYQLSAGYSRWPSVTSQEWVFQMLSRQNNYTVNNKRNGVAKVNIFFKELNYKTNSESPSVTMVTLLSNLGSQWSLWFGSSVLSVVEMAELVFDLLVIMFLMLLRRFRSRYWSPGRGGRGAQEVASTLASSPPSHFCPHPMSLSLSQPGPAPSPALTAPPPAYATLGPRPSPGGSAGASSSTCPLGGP
T1 sequence (P51168 1-640): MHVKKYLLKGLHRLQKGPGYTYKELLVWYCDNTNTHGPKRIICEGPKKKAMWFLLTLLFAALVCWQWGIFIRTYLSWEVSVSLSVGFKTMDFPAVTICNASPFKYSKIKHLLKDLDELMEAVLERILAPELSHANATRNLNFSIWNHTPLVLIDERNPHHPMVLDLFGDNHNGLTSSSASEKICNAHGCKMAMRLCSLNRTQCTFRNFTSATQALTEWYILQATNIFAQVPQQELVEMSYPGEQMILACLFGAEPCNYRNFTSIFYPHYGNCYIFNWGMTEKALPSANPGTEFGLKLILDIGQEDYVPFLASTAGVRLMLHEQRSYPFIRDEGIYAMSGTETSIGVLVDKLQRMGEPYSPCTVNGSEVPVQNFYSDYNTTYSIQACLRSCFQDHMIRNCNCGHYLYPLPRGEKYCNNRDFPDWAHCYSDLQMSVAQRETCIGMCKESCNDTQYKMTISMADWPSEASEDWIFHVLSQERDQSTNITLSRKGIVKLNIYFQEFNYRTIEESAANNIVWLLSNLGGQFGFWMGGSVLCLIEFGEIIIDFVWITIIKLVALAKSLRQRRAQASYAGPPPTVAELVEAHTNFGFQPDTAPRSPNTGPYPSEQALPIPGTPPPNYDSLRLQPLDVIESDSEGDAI
T1 sequence (P51170 1-649): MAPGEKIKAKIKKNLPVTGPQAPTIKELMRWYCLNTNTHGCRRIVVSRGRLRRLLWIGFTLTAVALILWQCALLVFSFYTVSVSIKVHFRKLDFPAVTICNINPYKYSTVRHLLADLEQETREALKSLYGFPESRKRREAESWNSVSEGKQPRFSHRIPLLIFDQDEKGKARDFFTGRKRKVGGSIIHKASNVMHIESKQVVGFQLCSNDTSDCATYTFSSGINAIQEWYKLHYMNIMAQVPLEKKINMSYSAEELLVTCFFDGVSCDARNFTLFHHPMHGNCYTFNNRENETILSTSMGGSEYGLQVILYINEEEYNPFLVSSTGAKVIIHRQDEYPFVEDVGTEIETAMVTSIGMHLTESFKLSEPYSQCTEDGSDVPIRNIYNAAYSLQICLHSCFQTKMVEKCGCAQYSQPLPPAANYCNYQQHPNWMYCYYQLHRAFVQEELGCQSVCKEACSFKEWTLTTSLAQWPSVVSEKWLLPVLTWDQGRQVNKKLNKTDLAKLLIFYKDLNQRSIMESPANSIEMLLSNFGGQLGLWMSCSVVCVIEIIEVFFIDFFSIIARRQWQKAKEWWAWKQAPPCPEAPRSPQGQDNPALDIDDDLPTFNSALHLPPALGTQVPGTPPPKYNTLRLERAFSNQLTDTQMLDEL
Experiment: ENaC Na^+ conductance in HBE cells
Format: cell-based
Conditions: 10 μM, 5 min pretreatment; amiloride 10 μM
Experimental: FIG. 2A-E. Characterization of TMEM16A activators. FIG. 2A. Cytoplasmic calcium measured by Fluo-4 fluorescence. 100 μM ATP (gray line) or 10 μM of indicated TMEM16A activators were added at the arrow. FIG. 2B. Apical membrane current measured in TMEM16A-expressing FRT cells in the presence of a transepithelial chloride gradient and after basolateral membrane permeabilization. […] T16Ainh-A01 (10 μM) added where indicated. […] (right) Concentration-activation data summary (mean±S.E., n=4-6). FIG. 2C. Synergistic effect of Eact and Fact. (left and center) Representative current traces showing synergy. (right) Data summary of low doses of TMEM16A activation (mean±S.E., n=5, * P<0.05). FIG. 2D. Apical membrane current measured in FRT cells transfected with mouse TMEM16A or TMEM16B. FIG. 2E. Effect of Eact and Fact on CFTR and ENaC. (left) FRT cells expressing wild type CFTR and YFP indicator were pretreated for 5 min with 10 μM Eact and Fact. Forskolin (10 μM) added as indicated. […]
Snapwell inserts containing TMEM16A-expressing FRT, HBE, CF HBE or HTG cells were mounted in Ussing chambers (Physiologic Instruments, San Diego, Calif.). […] Apical membrane current (for FRT cells) and short-circuit current were measured using an EVC4000 Multi-Channel V/I Clamp (World Precision Instruments, Sarasota, Fla.) and recorded using PowerLab/8sp (AD Instruments, Castle Hill, Australia).

## O=C(Nc1ccc(Br)cc1)c1cccc(-n2cnnn2)c1 [Fact, N-(4-bromophenyl)-3-(1H-tetrazol-1-yl)benzamide]
  effect on ENaC Na^+ conductance: Neither Eact nor Fact affected
